Data taken from patent US4044043A, “Derivatives of 9-oxo-13-trans-prostenoic acid esters” (American Cyanamid Company, priority 1975, dated 1977).
In brackets after ≈: the same amount, converted by molar mass. Read-outs that look alike come from different tables or passages of the source.

Experiments:
diastolic blood pressure = experiment: Prostaglandin-like hypotensive activity in anesthetized rats (minimal dose for about 10 mm. decrease in diastolic blood pressure); type: in vivo, Male Wistar strain rats; conditions: Rattus norvegicus; intravenous; decrease of about 10 mm. in diastolic blood pressure
Outline: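 Male Wistar rats (~250 g), pentobarbital 30 mg./kg. i.v. and hexamethonium 2 mg./kg. i.v., iliac artery cannulated for blood pressure. Compounds in saline-Tween 80 given i.v. at 0.1–10.0 mg./kg.; value is the minimal dose giving ~10 mm. drop in diastolic pressure.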

Trichophyton rubrum E 97 = experiment: agar-dilution streak-plate antimicrobial assay; type: cell-based; conditions: E97, read-out: Minimal inhibitory conc. (5)
Outline: (§1)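 Test solutions at 2.5 mg/ml were two-fold serially diluted, and 1 ml of each was mixed into 9 ml warm nutrient agar, with bacterial and fungal media kept separate. Overnight broth cultures or saline spore suspensions were streaked by loop. MIC was the lowest concentration (µg/ml) giving complete visible growth inhibition.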

[1] = system: Trichophyton mentagrophytes E 11; experiment: agar-dilution streak-plate antimicrobial assay; type: cell-based; conditions: E11, read-out: Minimal inhibitory conc. (4)
Outline: as §1

[2] = system: Trichophyton tonsurans NIH 662; experiment: agar-dilution streak-plate antimicrobial assay; type: cell-based; conditions: NIH662, read-out: Minimal inhibitory conc. (3)
Outline: as §1

[3] = system: Mycobacterium smegmatis ATCC 606; experiment: agar-dilution streak-plate antimicrobial assay; type: cell-based; conditions: Mycolicibacterium smegmatis, ATCC606, read-out: Minimal inhibitory conc. (6)
Outline: as §1

gastric acid secretion [4] = experiment: Inhibition of Gastric Acid Secretion (Pylorous-Ligated Rat), Shay rat procedure; type: in vivo, rats (male, CFE strain); conditions: read-out: % Inhibition of Control Gastric Acid Secretion; for inhibition in vivo at 100 mg/kg: 100 mg./kg. intraduodenal
Outline: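 Male CFE rats were fasted 48 h, then pylorus-ligated under ether. Gastric contents were titrated with 0.02N or 0.04N NaOH to pH 8.4 for acid output, and ≥20% inhibition counted as active.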

[5] = system: Streptococcus pyogenes C 203; experiment: agar-dilution streak-plate antimicrobial assay; type: cell-based; conditions: C203, read-out: Minimal inhibitory conc. (8)
Outline: as §1

[6] = system: bronchospasms elicited by acetylcholine; experiment: Bronchodilator Activity (Konzett Assay) against acetylcholine; type: in vivo, guinea pigs; conditions: Cavia porcellus; three logarithmic cumulative intravenous doses
Experimental: (§2) Bronchodilator activity was determined in guinea pigs against bronchospasms elicited by intravenous injections of 5-hydroxytryptamine, histamine or acetylcholine by the Konzett procedure. [See J. Lulling, P. Lievens, F. El Sayed and J. Prignot, Arzeneimittel-Forschung, 18, 995 (1968)]. In Table IIIC which follows bronchodilator activity for representative compounds of this invention against one or more of the three spasmogenic agents is expressed as an ED50 determined from the results obtained with three logarithmic cumulative intravenous doses.

[7] = system: dl-PGE1-induced contraction of gerbil colon; experiment: Inhibition of dl-PGE1-Induced Contraction of Gerbil Colon (prostaglandin antagonist action); type: cell-based, gerbils (Meriones unguiculatus); conditions: Meriones unguiculatus, 1 min; sub-maximal challenge, 20 ng./ml. dl-PGE1; 50% inhibition of maximum response; read-out: ID50 vs. 20 ng. of PGE1/ml.
Outline: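 Ascending colon from male gerbils, held in De Jalon's solution at 37 °C under 95% O2/5% CO2 with 0.5 g resting tension, contraction recorded isometrically. 1 min compound exposure, then 1 min dl-PGE1 at 200 ng/ml (maximal) or 20 ng/ml (sub-maximal). Approximate ID50 taken from a concentration series against the preceding agonist-only cycle.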

[8] = system: bronchospasms elicited by histamine; experiment: Bronchodilator Activity (Konzett Assay) against histamine; type: in vivo, guinea pigs; conditions: Cavia porcellus; three logarithmic cumulative intravenous doses
Experimental: as §2

gastric acid secretion [9] = experiment: Inhibition of basal Gastric Acid Secretion (Acute Gastric Fistula Rat); type: in vivo, Female Sprague-Dawley rats; conditions: 10 mg./kg. intraduodenal
Experimental: Inhibition of basal gastric acid secretion was determined in the acute gastric fistula rat as follows. Female Sprague-Dawley rats (Charles River Laboratories) weighing 140-160 grams are fasted in individual cages for 18-24 hours. The rats are then lightly anesthetized with ether and their front teeth extracted to avoid destruction of the plastic cannula. A midline incision is then made and the stomach and duodenum exposed. A flanged polyvinyl tube is inserted into the fundic portion of the stomach and secured with a purse string suture line using 4-0 Mersilene. The rat is then dosed by injection of the compound into the duodenum (1.0 ml. per 100 gram body weight). After dosing, the abdominal wall and skin are closed using metal wound clips. The rat is replaced in a cage containing a longitudinal slit to allow the polyvinyl tube to hang freely. An 8 ml. plastic collecting tube is attached to the flanged cannula and hangs freely below the cage. The first 30 minute sample is discarded designating this time as zero. The collecting tube is attached again and samples removed at the end of 60 and 120 minutes. Those samples are referred to as "A" and "B" in the table. The hourly samples are then transferred to a 15 ml. centrifuge tube and centrifuged for 5-10 minutes. Total and sediment volume are then recorded with the supernatant volume being used as volume of secretion. A 1 ml. or less aliquot is then removed and placed in a 50 ml. beaker containing 10 ml. of distilled water. This sample is then titrated using 0.01N NaOH to pH 7.0 using a Beckman zeromatic pH meter. Volume, titratable acidity (meq/L) and total acid output (μ eq/hour) are recorded. Percent inhibition is determined by comparison with the appropriate control. Groups of three rats were used. All compounds are administered in vehicle (0.5% methocel, 0.4% Tween 80, saline) at a constant volume of 1 ml./100 gram rat. Samples were sonicated with care to prevent overheating.

[10] = system: bronchospasms elicited by 5-hydroxytryptamine; experiment: Bronchodilator Activity (Konzett Assay) against 5-hydroxytryptamine; type: in vivo, guinea pigs; conditions: Cavia porcellus; three logarithmic cumulative intravenous doses
Experimental: as §2

[11] = system: Microsporum gypseum ATCC 14683; experiment: agar-dilution streak-plate antimicrobial assay; type: cell-based; conditions: Nannizzia gypsea, ATCC14683, read-out: Minimal inhibitory conc. (2)
Outline: as §1

[12] = 2 h, B: 120 minute collection, read-out: % Inhibition Total Acid Output
[13] = 2 h, B: 120 minute collection, read-out: % Inhibition Total Acidity

CCOC(=O)CCCCCC[C@H]1C(=O)CC[C@@H]1/C=C/CCCCCCCl (relative stereo) [ethyl 20-chloro-9-oxo-13-trans-prostenoate]
minimal effective dose (diastolic blood pressure): 0.5 mg/kg
MIC (Trichophyton rubrum E 97): 250 µg/mL (≈ 649 µM)
MIC [1]: 250 µg/mL (≈ 649 µM)
MIC [2]: 250 µg/mL (≈ 649 µM)
MIC [3]: 250 µg/mL (≈ 649 µM)

CCOC(=O)CCCCCC[C@H]1C(=O)CC[C@@H]1/C=C/CCCCl (relative stereo) [ethyl 20-chloro-9-oxo-17,18,19-trinor-13-trans-prostenoate]
minimal effective dose (diastolic blood pressure): 0.2 to 1 mg/kg
inhibition in vivo at 100 mg/kg (gastric acid secretion [4]): 61%
MIC [1]: 250 µg/mL (≈ 729 µM)
MIC [3]: 250 µg/mL (≈ 729 µM)

CCOC(=O)CCCCCC[C@H]1C(=O)CC[C@@H]1/C=C/CCCI (relative stereo) [ethyl 20-iodo-9-oxo-17,18,19-trinor-13-trans-prostenoate]
MIC [1]: 250 µg/mL (≈ 576 µM)
MIC [2]: 250 µg/mL (≈ 576 µM)
MIC [3]: 62 µg/mL (≈ 143 µM)

CCCCCC/C=C/[C@@H]1CCC(=O)[C@H]1CCCCCCC(=O)OCCCC (relative stereo) [n-butyl 9-oxo-13-trans-prostenoate]
minimal effective dose (diastolic blood pressure): 2 mg/kg
inhibition in vivo at 50 mg/kg (gastric acid secretion [4]; 50 mg./kg. intraduodenal): 20%
MIC [5]: 250 µg/mL (≈ 660 µM)
MIC [3]: 250 µg/mL (≈ 660 µM)

CCCCCCC=CC1CCC(C)(O)C1CCCCCCC(=O)O (stereo not drawn) [9-Hydroxy-9-methyl-13-trans-prostenoic acid]
ED50 [6]: 4.32 mg/kg
IC50 [7]: 2 to 5 µg/mL (≈ 5.91 to 14.8 µM)
ED50 [8]: 1.18 mg/kg
inhibition in vivo at 10 mg/kg (gastric acid secretion [9]; [12]): 31%
inhibition in vivo at 10 mg/kg (gastric acid secretion [9]; [13]): 16%
ED50 [10]: 0.756 mg/kg

O=C(O)CCCCCCC1C(O)CCC1C=CCCCCl (stereo not drawn) [9-hydroxy-20-chloro-17,18,19-trinor-13-trans-prostenoic acid]
ED50 [6]: > 10 mg/kg
minimal effective dose (diastolic blood pressure): 2 mg/kg
ED50 [8]: > 10 mg/kg
MIC [11]: 250 µg/mL (≈ 789 µM)
MIC [1]: 250 µg/mL (≈ 789 µM)
MIC [5]: 62 µg/mL (≈ 196 µM)
MIC [2]: 250 µg/mL (≈ 789 µM)
ED50 [10]: 17.9 mg/kg

CCCCCCC=CC1CCC(=O)C1CCCCCC(C(=O)O)c1ccccc1 (stereo not drawn) [9-oxo-2-phenyl-13-trans-prostenoic acid]
IC50 [7]: 5 to 7 µg/mL (≈ 12.5 to 17.6 µM)
inhibition in vivo at 10 mg/kg (gastric acid secretion [9]; [12]): 44%
inhibition in vivo at 10 mg/kg (gastric acid secretion [9]; [13]): 26%

CCCCCC/C=C/[C@H]1CCC(O)[C@@H]1CCCCC(=O)OCC (stereo partly drawn) [ethyl 9-hydroxy-6,7-dinor-13-trans-prostenoate]
MIC [5]: 13 µg/mL (≈ 40.1 µM)
MIC [3]: 6 µg/mL (≈ 18.5 µM)

CCCCCC/C=C/[C@H]1CCC(=O)[C@@H]1CCCCCC(CC)C(=O)OCC (stereo partly drawn) [ethyl 9-oxo-2-ethyl-13-trans-prostenoate, ethyl 2-ethyl-9-oxo-13-trans-prostenoate]
IC50 [7]: 10 to 25 µg/mL (≈ 26.4 to 66 µM)
inhibition in vivo at 100 mg/kg (gastric acid secretion [4]): 42%
inhibition in vivo at 10 mg/kg (gastric acid secretion [9]; 1 h, A: 60 minute collection, read-out: % Inhibition Total Acid Output): 56%
inhibition in vivo at 10 mg/kg (gastric acid secretion [9]; 1 h, A: 60 minute collection, read-out: % Inhibition Total Acidity): 66%
inhibition in vivo at 10 mg/kg (gastric acid secretion [9]; [12]): 48%
inhibition in vivo at 10 mg/kg (gastric acid secretion [9]; [13]): 49%

CCOC(=O)CCCCCC[C@H]1C(=O)CC[C@@H]1/C=C/CCC[S+]([O-])CC (stereo partly drawn) [ethyl 9-oxo-18-oxythia-13-trans-prostenoate]
minimal effective dose (diastolic blood pressure): 2 mg/kg
MIC (Trichophyton rubrum E 97): 250 µg/mL (≈ 650 µM)
MIC [1]: 250 µg/mL (≈ 650 µM)
MIC [2]: 250 µg/mL (≈ 650 µM)
MIC [3]: 250 µg/mL (≈ 650 µM)
